Reference: patent US11180488B2, “Isoxazole o-linked carbamoyl cyclohexyl acids as LPA antagonists” (BRISTOL-MYERS SQUIBB COMPANY, priority 2017, dated 2021)

Target: T1, human LPA1 (Homo sapiens, UniProt Q92633)
T1 construct: expressed in transfected cells; host or cells: Chinese hamster ovary (CHO) cells
Experiment: LPA1 functional antagonist assay (LPA-induced calcium flux)
Assay type: cell-based
Conditions: CHO cells overexpressing human LPA1; calcium flux induced by 10 nM LPA; read-out: LPA1 IC50
Method: The effectiveness of compounds of the present invention as LPA1 inhibitors can be determined in an LPA1 functional antagonist assay as follows:
Chinese hamster ovary cells overexpressing human LPA1 were plated overnight (15,000 cells/well) in poly-D-lysine coated 384-well microplates (Greiner bio-one, Cat #781946) in DMEM/F12 medium (Gibco, Cat #11039). Following overnight culture, cells were loaded with calcium indicator dye (AAT Bioquest Inc, Cat #34601) for 30 minutes at 37° C. The cells were then equilibrated to room temperature for 30 minutes before the assay. Test compounds solubilized in DMSO were transferred to 384 well non-binding surface plates (Corning, Cat #3575) using the Labcyte Echo acoustic dispense and diluted with assay buffer [1×HBSS with calcium/magnesium (Gibco Cat #14025-092), 20 mM HEPES (Gibco Cat #15630-080) and 0.1% fatty acid free BSA (Sigma Cat #A9205)] to a final concentration of 0.5% DMSO. Diluted compounds were added to the cells by FDSS6000 (Hamamatsu) at final concentrations ranging from 0.08 nM to 5 μM. and were then incubated for 20 min at room temperature at which time LPA (Avanti Polar Lipids Cat #857130C) was added at final concentrations of 10 nM to stimulate the cells. […] IC50 values were determined by fitting data to a 4-parameter logistic equation (GraphPad Prism, San Diego Calif.).

T1 sequence (Q92633 whole entry): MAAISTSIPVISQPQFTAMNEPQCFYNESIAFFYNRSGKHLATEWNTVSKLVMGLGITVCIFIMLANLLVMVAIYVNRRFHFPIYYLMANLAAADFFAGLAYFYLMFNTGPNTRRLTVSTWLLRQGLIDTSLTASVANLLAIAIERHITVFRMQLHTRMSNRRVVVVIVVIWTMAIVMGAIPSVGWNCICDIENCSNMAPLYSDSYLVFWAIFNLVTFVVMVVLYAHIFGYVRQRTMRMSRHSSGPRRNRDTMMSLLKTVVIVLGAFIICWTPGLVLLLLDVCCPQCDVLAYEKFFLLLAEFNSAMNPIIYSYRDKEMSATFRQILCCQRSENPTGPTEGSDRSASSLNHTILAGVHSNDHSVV

Q: Which IC50 does the source give for Cc1noc(-c2cnc(O[C@H]3CCC[C@H](C(=O)O)C3)cn2)c1COC(=O)N(C)C1CCCC1 [Example 55] here?
A: Its IC50 is 88 nM.

Q: With Cc1noc(-c2cnc(O[C@H]3CCC[C@H](C(=O)O)C3)cn2)c1COC(=O)N(C)CCC(C)C [Example 56] as the molecule, how does the IC50 read?
A: The IC50 was 150 nM.

Q: With Cc1noc(-c2ccc(O[C@H]3CCC[C@H](C(=O)O)C3)cn2)c1COC(=O)N(C)C(C1CC1)C1CC1 [Example 57] as the molecule, how does the IC50 read?
A: The IC50 was 26 nM.

Q: With Cc1noc(-c2ccc(O[C@H]3CCC[C@H](C(=O)O)C3)cn2)c1COC(=O)N(C)CC1CCC1 [Example 58] as the molecule, how does the IC50 read?
A: Its IC50 is 8 nM.

Q: For Cc1nc(-c2onc(C)c2COC(=O)N[C@H](C)c2ccccc2)ccc1O[C@H]1CCC[C@H](C(=O)O)C1 [Example 59], which IC50 is on record?
A: The IC50 was 45 nM.

Q: For Cc1nc(-c2onc(C)c2COC(=O)NC(C)(C)C)ccc1O[C@H]1CCC[C@H](C(=O)O)C1 [Example 60], which IC50 is on record?
A: Its IC50 is 166 nM.

Q: For Cc1nc(-c2onc(C)c2COC(=O)N(C)Cc2cccc(F)c2)ccc1O[C@H]1CCC[C@H](C(=O)O)C1 [Example 61], which IC50 is on record?
A: The IC50 was 19 nM.

Q: Which IC50 does the source give for Cc1nc(-c2onc(C)c2COC(=O)N(C)[C@H](C)c2ccccc2)ccc1O[C@H]1CCC[C@H](C(=O)O)C1 [Example 62] here?
A: The IC50 was 17 nM.

Q: Which IC50 does the source give for Cc1nc(-c2onc(C)c2COC(=O)N(C)C(C)(C)C)ccc1O[C@H]1CCC[C@H](C(=O)O)C1 [Example 63] here?
A: Its IC50 is 50 nM.

Q: For Cc1cc(-c2onc(C)c2COC(=O)N(C)C2CCCC2)ccc1O[C@H]1CCC[C@H](C(=O)O)C1 [Example 64], which IC50 is on record?
A: Its IC50 is 52 nM.

Same assay, conditions: CHO cells overexpressing human LPA1; calcium flux induced by 10 nM LPA; read-out: hLPA1 IC50

Q: With Cc1noc(-c2ccc(O[C@H]3CCC[C@H](C(=O)O)C3)cc2)c1COC(=O)N(C)C1CCC1 [Example 36] as the molecule, how does the IC50 read?
A: The IC50 was 102 nM.

Q: For Cc1noc(-c2ccc(O[C@H]3CCC[C@H](C(=O)O)C3)cc2)c1COC(=O)N(C)CC1CC1 [Example 37], which IC50 is on record?
A: The IC50 was 206 nM.

Q: Which IC50 does the source give for Cc1noc(-c2ccc(O[C@@H]3CCC[C@@H](C(=O)O)C3)c(F)c2)c1COC(=O)N(C)C1CCCC1 [Example 38] here?
A: Its IC50 is 26 nM.

Q: For Cc1nc(-c2onc(C)c2COC(=O)N(C)C2CCCC2)ccc1O[C@H]1CCC[C@@H](C(=O)O)C1 [Example 39], which IC50 is on record?
A: The IC50 was 27 nM.

Q: With Cc1noc(-c2ccc(O[C@H]3CCC[C@H](C(=O)O)C3)cn2)c1COC(=O)N[C@H](C)C1CC1 [Example 40] as the molecule, how does the IC50 read?
A: Its IC50 is 1650 nM.

Q: With Cc1noc(-c2ccc(O[C@H]3CCC[C@H](C(=O)O)C3)cn2)c1COC(=O)N(C)[C@@H](C)C1CC1 [Example 41] as the molecule, how does the IC50 read?
A: Its IC50 is 46 nM.

Q: With Cc1noc(-c2ccc(O[C@H]3CCC[C@H](C(=O)O)C3)cn2)c1COC(=O)N(C)[C@H](C)C1CC1 [Example 42] as the molecule, how does the IC50 read?
A: The IC50 was 20 nM.

Q: With Cc1noc(-c2ccc(O[C@H]3CCC[C@H](C(=O)O)C3)cn2)c1COC(=O)N(C)CCC1CC1 [Example 43] as the molecule, how does the IC50 read?
A: Its IC50 is 15 nM.

Q: For Cc1noc(-c2ccc(O[C@H]3CCC[C@H](C(=O)O)C3)cn2)c1COC(=O)N(C)CCC(C)C [Example 45], which IC50 is on record?
A: Its IC50 is 5.2 nM.

Q: For Cc1noc(-c2ccc(O[C@H]3CCC[C@@H](CC(=O)O)C3)cc2)c1COC(=O)N(C)C1CCCC1 [Example 48], which IC50 is on record?
A: The IC50 was 1490 nM.

Q: Which IC50 does the source give for Cc1noc(-c2ccc(O[C@@H]3CCC[C@@H](CC(=O)O)C3)cc2)c1COC(=O)N(C)CCC(C)C [Example 49] here?
A: Its IC50 is 1210 nM.

Q: With Cc1noc(-c2ccc(O[C@H]3CCC[C@H](C(=O)O)C3)cc2)c1C(C)OC(=O)N(C)CCC(C)C (stereo partly drawn) [Example 50, (1S,3S)-3-(4-(4-(1-((isopentyl(methyl)carbamoyl)oxy)ethyl)-3-methyl-isoxazol-5-yl)phenoxy)cyclohexane-1-carboxylic Acid] as the molecule, how does the IC50 read?
A: The IC50 was 175 nM.

Q: For Cc1noc(-c2ccc(O[C@H]3CCC[C@H](C(=O)O)C3)cc2)c1C(C)OC(=O)N(C)[C@H](C)C1CC1 (some centres unmarked) [Example 51], which IC50 is on record?
A: Its IC50 is 32 nM.

Q: For CCCCN(C)C(=O)OC(C)c1c(C)noc1-c1ccc(O[C@H]2CCC[C@H](C(=O)O)C2)cc1 (some centres unmarked) [Example 52], which IC50 is on record?
A: Its IC50 is 60 nM.

Q: Which IC50 does the source give for Cc1onc(-c2ccc(O[C@H]3CCC[C@H](C(=O)O)C3)cc2)c1COC(=O)N(C)C1CCCC1 [Example 53, (1S,3S)-3-(4-(4-(((cyclopentyl(methyl)carbamoyl)oxy)methyl)-5-methylisoxazol-3-yl)phenoxy)cyclohexane-1-carboxylic Acid] here?
A: Its IC50 is 6 nM.

Q: Which IC50 does the source give for Cc1onc(-c2ccc(O[C@H]3CCC[C@H](C(=O)O)C3)nc2)c1COC(=O)N(C)C1CCCC1 [Example 54, (1S,3S)-3-((5-(4-(((cyclopentyl(methyl)carbamoyl)oxy)methyl)-5-methylisoxazol-3-yl)pyridin-2-yl)oxy)cyclohexane-1-carboxylic Acid] here?
A: The IC50 was 197 nM.

Q: With [2H]C([2H])([2H])N(C(=O)OCc1c(C)noc1-c1ccc(O[C@H]2CCC[C@H](C(=O)O)C2)cn1)[C@H](C)C1CC1 [Example 66] as the molecule, how does the IC50 read?
A: The IC50 was 25 nM.

Q: Which IC50 does the source give for COCC(C)N(C)C(=O)OCc1c(C)noc1-c1ccc(O[C@@H]2CCC[C@@H](C(=O)O)C2)cc1 (some centres unmarked) [Example 67] here?
A: Its IC50 is 675 nM.

Q: Which IC50 does the source give for Cc1noc(-c2ccc(O[C@@H]3CCC[C@@H](C(=O)O)C3)cc2)c1COC(=O)N(C)C(C)C1CC1 (some centres unmarked) [Example 68] here?
A: The IC50 was 48 nM.

Q: For Cc1noc(-c2ccc(O[C@@H]3CCC[C@@H](C(=O)O)C3)cc2)c1COC(=O)N(C)C(C)C1CCC1 (some centres unmarked) [Example 69], which IC50 is on record?
A: Its IC50 is 214 nM.

Q: Which IC50 does the source give for Cc1noc(-c2ccc(O[C@H]3CCC[C@H](C(=O)O)C3)cn2)c1COC(=O)N(C)C1CC(C)(C)C1 [Example 70] here?
A: Its IC50 is 23 nM.

Q: Which IC50 does the source give for COC(C)CN(C)C(=O)OCc1c(C)noc1-c1ccc(O[C@@H]2CCC[C@@H](C(=O)O)C2)cc1 (some centres unmarked) [Example 71] here?
A: Its IC50 is 1630 nM.

Q: Which IC50 does the source give for COCCN(C)C(=O)OCc1c(C)noc1-c1ccc(O[C@@H]2CCC[C@@H](C(=O)O)C2)cc1 [Example 72] here?
A: Its IC50 is 472 nM.

System: IPF patients
Experiment: not given
Conditions: 26-week clinical trial; cited from earlier work

Q: Which “rate of FVC (forced vital capacity) decline” value does the source give for Cc1noc(-c2ccc(-c3ccc(C4(C(=O)O)CC4)cc3)cc2)c1NC(=O)O[C@H](C)c1ccccc1 [BMS-986020] here?
A: Its value is “significantly reduce”.

System: human foetal lung fibroblasts
Experiment: not given
Conditions: cited from earlier work

Q: Which results are given for Cc1noc(-c2ccc(CSCCC(=O)O)cc2)c1NC(=O)OC(C)c1ccccc1Cl (centres unmarked) [Ki16425]?
A: chemotaxis of human foetal lung fibroblasts induced by BAL from IPF patients: blocked; fibroblast chemotactic activity in bronchoalveolar lavage samples of IPF subjects: inhibited

System: UUO mice
Experiment: not given
Conditions: mouse, in vivo; cited from earlier work

Q: Which “renal fibrosis profile of treated UUO mice” value does the source give for Cc1noc(-c2ccc(CSCCC(=O)O)cc2)c1NC(=O)OC(C)c1ccccc1Cl (centres unmarked) [Ki16425] here?
A: Its value is “closely resembled the profile of LPA1 (−/−) mice”.

System: CTGF
Experiment: not given
Conditions: co-treatment, MCT cells; cited from earlier work

Q: With Cc1noc(-c2ccc(CSCCC(=O)O)cc2)c1NC(=O)OC(C)c1ccccc1Cl (centres unmarked) [Ki16425] as the molecule, how does the “induction of CTGF expression by LPA” value read?
A: Its value is “almost completely suppressed”.

System: pancreatic cancer cell lines
Experiment: not given
Conditions: cited from earlier work

Q: Which “in vitro migration in response to LPA and peritoneal fluid (ascites)” value does the source give for Cc1noc(-c2ccc(CSCCC(=O)O)cc2)c1NC(=O)OC(C)c1ccccc1Cl (centres unmarked) [Ki16425] here?
A: The value was “effectively blocked”.

System: highly peritoneal metastatic pancreatic cancer cell line
Experiment: not given
Conditions: cited from earlier work

Q: Which “LPA-induced and ascites-induced invasion activity” value does the source give for Cc1noc(-c2ccc(CSCCC(=O)O)cc2)c1NC(=O)OC(C)c1ccccc1Cl (centres unmarked) [Ki16425] here?
A: The value was “blocked”.

System: nerve-injured mice
Experiment: not given
Conditions: pretreatment; cited from earlier work

Q: For C[C@@H](N)[C@H]1CC[C@H](C(=O)Nc2ccncc2)CC1 [Example Y-27632], which allodynia and hyperalgesia is on record?
A: Its allodynia and hyperalgesia is “completely abolished”.
